# pIC50: −log10 of the molar value.
# Test system: aorta rings
# Assay: Vasorelaxant effect in vitro (phenylephrine-contracted rabbit aorta rings)
# Parameters: species or system Rabbits
# Details: Oryctolagus cuniculus, contraction induced by phenylephrine, 37° C., 0.1% DMSO, read-out: IC50 (concentration necessary to reduce the level of contraction by 50%)
# Protocol: Rabbits are stunned by a blow to the back of the neck and are exsanguinated. The aorta is removed, freed of adherent tissue, divided into rings 1.5 mm wide and placed singly in 5 ml organ baths with carbogen-gassed Krebs-Henseleit solution of the following composition (in each case mM): NaCl: 119; KCl: 4.8; CaCl2×2H2O: 1; MgSO4×7H2O: 1.4; KH2PO4: 1.2; NaHCO3: 25; glucose: 10, under an initial tension at 37° C. The force of contraction is detected with Statham UC2 cells, amplified and digitized via A/D converters (DAS-1802 HC, Keithley Instruments Munich), and recorded in parallel on chart recorders. A contraction is induced by adding phenylephrine to the bath cumulatively in increasing concentration. After several control cycles, the substance to be investigated is added in each further run in increasing dosage each time, and the level of contraction is compared with the level of contraction achieved in the last preceding run. The concentration necessary to reduce the level of contraction by 50% (IC50) is calculated therefrom. The standard application volume is 5 μl, and the DMSO content in the bath solution corresponds to 0.1%.
smiles,measurement,value
"Nc1nc(N)nc(-c2nn(Cc3ccccc3F)c3nccn23)n1 [Example 1, 6-[1-(2-Fluorobenzyl)-1H-imidazo[2,1-c][1,2,4]triazol-3-yl]-1,3,5-triazine-2,4-diamine]",pIC50,5.21

# Source: patent publication US8114400B2, “Aza-bicyclic compounds and their use as stimulators of soluble guanylate cyclase” (Bayer Pharma Aktiengesellschaft, priority 2006, dated 2012)
